{"source": "patent US20140357706A1", "about": "“Stearate Compounds” (THE UAB RESEARCH FOUNDATION, priority 2011, published 2014)", "assay_type_in_all_cases": "cell-based, human", "key": {"Ras": {"system": "Ras", "assay": "Ras activation assay in Hs578T cells", "details": "with or without EGF", "procedure": "(§1) The concentration of stearate used to treat the Hs578T cells was 50 μM. When EGF was used, the concentration was 1 nM EGF. Before the treatment with stearate or EGF, cells were first starved for 24-48 hours. Stearate was loaded onto fatty acid-free bovine serum albumin (BSA) according to the method reported by Spector et al. (13); briefly, stearate (0.5 g) was dissolved in chloroform (100 ml) and mixed well with 10 g diatomaceous earth in a 1 liter flask. The mixture was stirred and dried under nitrogen until powder. BSA is a physiological carrier of fatty acids and was used to avoid the introduction of organic solvents to solutions coming into contact with cells. Fatty acid-free BSA (1 g) was dissolved in 100 ml with Dulbecco's modified Eagle's medium without phenol red and mixed with 3 g of the stearate/diatomaceous earth mixture with stirring for 45 min. The stearate/BSA solution was filtered through a 0.45 μm filter, and adjusted to pH 7.4. The concentration of stearate in the solution was detected with the NEFA C Kit from Wako Chemicals GmbH (Neuss, Germany). […]\n(§2) Ras and Rho activation assay kits were purchased from Millipore (Billerica, Mass.). […] The beads were washed three times with lysis buffer B. Bound Ras-GTP and Rho-GTP proteins were detected by immunoblot using Ras and Rho antibodies."}, "Rho": {"system": "Rho", "assay": "Rho activation assay in Hs578T cells", "details": "all time points, especially 16 and 24 h post-EGF stimulation; vs controls", "procedure": "as §1, §2"}, "[1]": {"system": "p21^CIP1/WAF1, p27^KIP1, pCdk2", "assay": "Immunoblot of p21CIP1/WAF1, p27KIP1 and phosphorylated Cdk2 in Hs578T cells", "details": "50 μM stearate, Hs578T", "procedure": "The concentration of stearate used to treat the Hs578T cells was 50 μM. When EGF was used, the concentration was 1 nM EGF. Before the treatment with stearate or EGF, cells were first starved for 24-48 hours. Stearate was loaded onto fatty acid-free bovine serum albumin (BSA) according to the method reported by Spector et al. (13); briefly, stearate (0.5 g) was dissolved in chloroform (100 ml) and mixed well with 10 g diatomaceous earth in a 1 liter flask. The mixture was stirred and dried under nitrogen until powder. BSA is a physiological carrier of fatty acids and was used to avoid the introduction of organic solvents to solutions coming into contact with cells. Fatty acid-free BSA (1 g) was dissolved in 100 ml with Dulbecco's modified Eagle's medium without phenol red and mixed with 3 g of the stearate/diatomaceous earth mixture with stirring for 45 min. The stearate/BSA solution was filtered through a 0.45 μm filter, and adjusted to pH 7.4. The concentration of stearate in the solution was detected with the NEFA C Kit from Wako Chemicals GmbH (Neuss, Germany). All experimental data on Hs578T cells were controlled using fatty acid-free BSA control solutions that were put through the same preparatory procedure described for the stearate/BSA solution except for the fact that no fatty acid was added.\nCells were treated as described above, and lysed with lysis buffer. The supernatants of the lysates or the immunoprecipitates were loaded with Laemmli sample buffer on 10% sodium dodecyl sulfate-polyacrylamide gel electrophoresis gels after boiling at 100° C. for 5 min. Proteins were then transferred to a polyvinylidene difluoride membrane. The membranes were blocked overnight at 4° C. with blocking buffer containing 5% non-fat dried milk powder in Tris-buffered saline-T (25 mM Tris, 140 mM NaCl, 2.7 mM KCl, 0.05% Tween-20, pH 8.0), incubated with primary antibody in blocking buffer at room temperature for 1 hour and incubated with antirabbit or antimouse antibodies labeled with horseradish peroxidase (1:5000) in blocking buffer under the same conditions, and then washed three times for 10 min in Tris-buffered saline-T. The polyvinylidene difluoride membranes were washed and developed using enhanced chemiluminescence reagents."}}}
{"compound": "CCCCCCCCCCCCCCCCCC(=O)O", "note": "[stearate, Stearic acid]", "values": [{"measurement": "Binding of GTP to Ras", "setting": "Ras", "value": "increases"}, {"measurement": "Rho-GTP", "setting": "Rho", "value": "decreased"}, {"measurement": "Protein level of p21^CIP1/WAF1", "setting": "[1]", "value": "increases"}, {"measurement": "Protein level of p27^KIP1", "setting": "[1]", "value": "increases"}, {"measurement": "pCdk2", "setting": "[1]", "value": "decreased"}]}
